In ChEMBL document CHEMBL1649523, “Prospective open-label study of the administration of two-percent voriconazole eye drops” (2009):
Values after ≈ are worked out from the molar mass of the structure shown.

Columns and labels:
Assay type in all cases: functional
[1] = tested on: Candida albicans; experiment: Antifungal against Candida albicans
[2] = tested on: Candida tropicalis; experiment: Antifungal against Candida tropicalis
[3] = tested on: Blastomyces dermatitidis; experiment: Antifungal against Blastomycoides dermatitidis
[4] = tested on: Scedosporium apiospermum; experiment: Antifungal against Scedosporium apiospermum
[5] = tested on: Cryptococcus neoformans; experiment: Antifungal against Cryptococcus neoformans
[6] = Antifungal against Scedosporium
[7] = tested on: Histoplasma capsulatum; experiment: Antifungal against Histoplasma capsulatum
[8] = Antifungal against Paecilomyces lilacinus; conditions: Purpureocillium lilacinum
[9] = tested on: Curvularia; experiment: Antifungal against Curvularia
[10] = tested on: Fusarium sp.; experiment: Antifungal against Fusarium sp.
[11] = tested on: Fusarium solani; experiment: Antifungal against Fusarium solani by microdilution technique
[12] = Antifungal against Coccidioides immitis
[13] = tested on: Talaromyces marneffei; experiment: Antifungal against Penicillium marneffei
[14] = Antifungal against Acremonium alabamense; conditions: Thielavia terrestris
[15] = tested on: Aspergillus fumigatus; experiment: Antifungal against Aspergillus fumigatus
[16] = tested on: Candida parapsilosis; experiment: Antifungal against Candida parapsilosis; conditions: Lodderomyces parapsilosis
[17] = tested on: Aspergillus flavus; experiment: Antifungal against Aspergillus flavus

C[C@@H](c1ncncc1F)[C@](O)(Cn1cncn1)c1ccc(F)cc1F [VORICONAZOLE]
MIC90 [1]: 0.06 µg/mL (≈ 0.172 µM)
MIC90 [2]: > 0.25 µg/mL
MIC90 [3]: 0.25 µg/mL (≈ 0.716 µM)
MIC90 [4]: 0.5 µg/mL (≈ 1.43 µM)
MIC90 [5]: 0.06 µg/mL (≈ 0.172 µM)
MIC90 [6]: 0.5 µg/mL (≈ 1.43 µM)
MIC90 [7]: 0.25 µg/mL (≈ 0.716 µM)
MIC90 [8]: 0.5 µg/mL (≈ 1.43 µM)
MIC90 [9]: 0.06 µg/mL (≈ 0.172 µM)
MIC90 [10]: 0.25 µg/mL (≈ 0.716 µM)
MIC90 [11]: 2 µg/mL (≈ 5.73 µM)
MIC90 [12]: 0.25 µg/mL (≈ 0.716 µM)
MIC90 [13]: 0.03 µg/mL (≈ 0.0859 µM)
MIC90 [14]: 0.25 µg/mL (≈ 0.716 µM)
MIC90 [15]: 0.5 µg/mL (≈ 1.43 µM)
MIC90 [16]: 0.12 µg/mL (≈ 0.344 µM)
MIC90 [17]: 0.5 µg/mL (≈ 1.43 µM)
